According to patent EP1996603B1, “LIPID A ANTAGONISTS WITH ANTI-SEPTIC SHOCK, ANTI-INFLAMMATORY, ANTI-ISCHEMIA AND ANALGESIC ACTIVITY” (Università Degli Studi Di Milano - Bicocca, priority 2006, dated 2007):

Assays:
neuropathic mice = experiment: Neuropathic pain after sciatic nerve ligation (plantar test, Von Frey test); type: in vivo, mice C57BL/6J; conditions: i.p. 5 mg/kg once a day for one week starting the day after surgery
Experimental: Male mice C57BL/6J were anesthetized with sodium pentobarbital (65 mg/kg, i.p.) and submitted to surgery to induce neuropathic pain. […] Sham animals (sciatic exposure without ligation) were used as controls. The animal pain response was monitored before surgery, on day 7 (24 h after the last administration). Compound (Id) was administered i.p. at 5 mg/kg once a day starting the day after the surgery. Heat hypersensitivity was tested according to the Hargreaves' procedure using the plantar test (Ugo Basile, Varese, Italy). Mechanical allodynia was measured using the Von Frey test.

[1] = Solubility in the aqueous media used in the tests; type: physicochemical; conditions: compared with Ia and Ic
[2] = tested on: ischemia-induced EEG flattening; experiment: Cerebral ischemia by bilateral carotid occlusion, EEG spectral power; type: in vivo, Mongolian gerbils (Meriones unguiculatus); conditions: 10 mg/kg i.p. 30 min before bilateral carotid occlusion; starting from 1 hour after recirculation
Experimental: After implanting EEG electrodes, the gerbils were divided into different groups on the basis of the assigned treatment. Their electroencephalogram (EEG) was recorded for 1 h a day, for three days, to determine the basal total and relative spectral power. The signals were recorded and processed for fast Fourier transform spectral analysis by means of PC software (PowerLab, AD Instruments, Pty, Ltd, Australia). EEG recordings were also made for seven days after ischemia. After basal EEG recordings, each gerbil was again lightly anaesthetised and 10-min. ischemia was induced by bilateral common carotid arteries occlusion. The ischemia was verified qualitatively on paper by the complete flattening of the EEG. A group of animals (sham-operated) underwent the same surgical procedure except that the carotid arteries were not clamped. Compound Id was i.p. administered to the animals at the dose of 10 mg/kg 30 minutes before ischemia induction.

human TLR-4A = target: T1, human TLR-4A (Homo sapiens, UniProt O00206+Q9Y6Y9); experiment: NF-kB activation in HEK-293 cells transfected with TLR-4, stimulated with lipid A; type: cell-based; conditions: TLR-4-transfected HEK 293; lipid A (0.5 µM) after pre-exposure to compound; measured 2 h later
T1 construct: host or cells: HEK-293 (HEK-293-hTLR-4A)
Experimental: (§1) • Figure 1. Antagonistic activity of compounds Ia, Ic and Id on lipid A-stimulated cytokine production in BMDC, BMØ and D1 cells. TNFα production was measured in the supernatants 24 h later. From the right: lipid A (0.5µM), cells treated with lipid A alone; DMSO: cells incubated in the presence of complete medium plus DMSO; inhibitor 50 µM, cells treated only with monosaccharides Ia, Ic and Id; other columns, lipid A + compounds […] at increasing doses. The data represent means and standard deviations of triplicate wells. This is a representative of three independent experiments. *, p < 0.05; **, p < 0.01; ***, p< 0.001. • Figure 2. TLR-4 selectivity of monosaccharide Id. […] IL-1β was measured in the supernatants by ELISA. […] Lower panels, TNFα production measured by ELISA 24 h after stimulation with CpG (selective for TLR-9) or PAM3Cys-SK4 (selective for TLR-2) in the presence of compound Id. […] The cells were then analyzed by FACS for the presence of annexin V and propidium iodide (PI) double positive cells. […] NF-kB activation was evaluated in the nuclear extract 2 h later and expressed as optical density (OD) at 450 nm. […] Effect of different doses of compound Id on carrageenan induced edema in mice measured 4h after the exposure and expressed as difference between the paw volume of treated paw versus the contralateral paw. […]

BMΦ and D1 cells = experiment: Lipid A-induced IL-1β production (ELISA); type: cell-based, Mouse; conditions: lipid A (0.5 µM) stimulation, effect proportional to concentration
Experimental: as §1

TLR2 = experiment: TNFα production after stimulation with Pam3Cys-SK4 (TLR2 selectivity); type: cell-based, Mouse; conditions: stimulation with Pam3Cys-SK4, specific for TLR2
Experimental: as §1

T1 sequence (O00206 24-839): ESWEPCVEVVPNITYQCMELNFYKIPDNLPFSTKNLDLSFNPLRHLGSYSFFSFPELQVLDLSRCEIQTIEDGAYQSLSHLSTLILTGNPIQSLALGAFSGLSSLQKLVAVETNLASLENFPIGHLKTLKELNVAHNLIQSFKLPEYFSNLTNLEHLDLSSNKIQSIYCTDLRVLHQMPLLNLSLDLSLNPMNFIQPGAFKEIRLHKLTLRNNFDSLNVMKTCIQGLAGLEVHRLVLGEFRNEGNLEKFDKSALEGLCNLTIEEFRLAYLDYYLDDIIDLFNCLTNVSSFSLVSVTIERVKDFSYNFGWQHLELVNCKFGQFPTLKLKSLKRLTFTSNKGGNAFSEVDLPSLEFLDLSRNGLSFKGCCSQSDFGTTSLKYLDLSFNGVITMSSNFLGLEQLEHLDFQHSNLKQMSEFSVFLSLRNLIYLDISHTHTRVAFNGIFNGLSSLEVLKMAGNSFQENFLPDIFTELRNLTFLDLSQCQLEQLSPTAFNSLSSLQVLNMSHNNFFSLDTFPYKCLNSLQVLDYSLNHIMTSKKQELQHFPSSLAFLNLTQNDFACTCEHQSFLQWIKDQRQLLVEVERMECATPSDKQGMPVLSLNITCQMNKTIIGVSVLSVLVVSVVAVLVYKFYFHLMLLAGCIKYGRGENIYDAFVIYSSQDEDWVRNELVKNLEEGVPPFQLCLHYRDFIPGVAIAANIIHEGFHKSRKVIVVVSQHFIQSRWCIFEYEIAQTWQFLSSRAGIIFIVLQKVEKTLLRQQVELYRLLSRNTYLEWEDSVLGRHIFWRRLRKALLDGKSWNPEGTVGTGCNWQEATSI
T1 sequence (Q9Y6Y9 17-160 limits assumed): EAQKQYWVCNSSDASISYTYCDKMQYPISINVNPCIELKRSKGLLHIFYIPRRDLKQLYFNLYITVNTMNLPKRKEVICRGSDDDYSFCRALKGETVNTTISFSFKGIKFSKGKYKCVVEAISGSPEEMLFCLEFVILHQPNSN

SMILES: CCCCCCCCCCCCCCO[C@H]1[C@@H](OC)O[C@H](C[N+](C)(C)C2CCCC2)[C@@H](O)[C@@H]1OCCCCCCCCCCCCCC [Compound Id, methyl 6-deoxy-6-N,N',N"-dimethylcyclopentylammonium-2,3-di-O-tetradecyl-α-D-glucopyranoside]
- mechanical allodynia (neuropathic mice; Von Frey test): significant relief
- thermal hyperalgesia (neuropathic mice; plantar test): significant relief
- solubility in the aqueous media used in the tests [1]: highest solubility
- ischemia-induced EEG flattening [2]: able to significantly antagonize the ischemia-induced EEG flattening
- NF-kB activation (human TLR-4A): able to significantly counteract the effect of lipid A
- IL-1β synthesis (BMΦ and D1 cells): inhibited
- TNFα production (TLR2): not inhibited
